ChEMBL document CHEMBL1201862, “PubChem BioAssay data set” (2004)
Activity calls are given as the source filed them.

Columns and labels:
[1] = target: Neuropeptide Y receptor type 1 (Homo sapiens, UniProt P25929); assay: Fluorescence-based counterscreen for agonists of NPY-Y2: cell-based high-throughput dose response assay for agonists of NPY-Y1.; format: functional
[2] = target: Neuropeptide Y receptor type 2 (Homo sapiens, UniProt P49146); assay: Fluorescence-based cell-based high-throughput dose response assay for agonists of NPY-Y2. [Related pubchem assays: 1703 (Screening assay (CNGC inhibitors).), 1359 (Screening assay (NPY-Y2 potentiators or agonists).), 1304 (Screening assay (NPY-Y1 potentiators or agonists).), 1710 (Screening assay (NPY-Y2 agonists).), 1791 (Summary AID.)]; format: functional
Chain of Neuropeptide Y receptor type 2 (P49146 whole entry): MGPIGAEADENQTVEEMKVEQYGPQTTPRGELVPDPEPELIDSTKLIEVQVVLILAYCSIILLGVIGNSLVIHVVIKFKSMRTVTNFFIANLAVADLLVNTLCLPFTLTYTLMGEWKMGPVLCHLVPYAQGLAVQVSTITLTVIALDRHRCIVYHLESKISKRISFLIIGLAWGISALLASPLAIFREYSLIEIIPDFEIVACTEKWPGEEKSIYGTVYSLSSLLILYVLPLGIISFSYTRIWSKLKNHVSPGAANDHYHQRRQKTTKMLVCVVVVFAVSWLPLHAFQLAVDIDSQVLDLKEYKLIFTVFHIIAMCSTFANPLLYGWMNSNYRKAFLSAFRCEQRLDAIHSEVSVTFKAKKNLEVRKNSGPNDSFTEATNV

[3] = test system: HEK293; assay: Fluorescence-based counterscreen for potentiators or agonists of NPY-Y2: cell-based high-throughput dose response assay to identify inhibitors of cyclic nucleotide gated ion channel (CNGC) activity. In this assay, the parental HEK293 cell line transfected with a cyclic-nucleotide gated ion channel (CNGC)-based cAMP sensor is used to measure inhibition of isoproterenol-induced CNGC activity by test compound.; format: functional; settings: Homo sapiens;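 note: stimulus is 1 µM isoproterenol at EC100 plus PDE inhibitor Ro 20-1724 at 25 µM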
[4] = Counterscreen for IDE inhibitors: Luminescence-based cell-based high throughput dose response assay to identify compounds that are cytotoxic to HEK cells. [Related pubchem assays: 434962 (Primary screen (IDE inhibitors in singlicate)), 449730 (Counterscreen (Cytotoxicity in triplicate)), 435028 (Confirmation (IDE inhibitors in triplicate)) …; format: functional; settings: HEK293
[5] = target: T1, Insulin-degrading enzyme (Homo sapiens, UniProt P14735); assay: Dose Response: Fluorescence polarization-based cell-based high throughput dose response assay for inhibitors of insulin-degrading enzyme (IDE). [Related pubchem assays: 434962 (Primary screen (IDE inhibitors in singlicate)), 449730 (Counterscreen (Cytotoxicity in triplicate)), 435028 (Confirmation (IDE inhibitors in triplicate)), 434984 (Summary …; format: functional
T1 sequence (P14735 whole entry): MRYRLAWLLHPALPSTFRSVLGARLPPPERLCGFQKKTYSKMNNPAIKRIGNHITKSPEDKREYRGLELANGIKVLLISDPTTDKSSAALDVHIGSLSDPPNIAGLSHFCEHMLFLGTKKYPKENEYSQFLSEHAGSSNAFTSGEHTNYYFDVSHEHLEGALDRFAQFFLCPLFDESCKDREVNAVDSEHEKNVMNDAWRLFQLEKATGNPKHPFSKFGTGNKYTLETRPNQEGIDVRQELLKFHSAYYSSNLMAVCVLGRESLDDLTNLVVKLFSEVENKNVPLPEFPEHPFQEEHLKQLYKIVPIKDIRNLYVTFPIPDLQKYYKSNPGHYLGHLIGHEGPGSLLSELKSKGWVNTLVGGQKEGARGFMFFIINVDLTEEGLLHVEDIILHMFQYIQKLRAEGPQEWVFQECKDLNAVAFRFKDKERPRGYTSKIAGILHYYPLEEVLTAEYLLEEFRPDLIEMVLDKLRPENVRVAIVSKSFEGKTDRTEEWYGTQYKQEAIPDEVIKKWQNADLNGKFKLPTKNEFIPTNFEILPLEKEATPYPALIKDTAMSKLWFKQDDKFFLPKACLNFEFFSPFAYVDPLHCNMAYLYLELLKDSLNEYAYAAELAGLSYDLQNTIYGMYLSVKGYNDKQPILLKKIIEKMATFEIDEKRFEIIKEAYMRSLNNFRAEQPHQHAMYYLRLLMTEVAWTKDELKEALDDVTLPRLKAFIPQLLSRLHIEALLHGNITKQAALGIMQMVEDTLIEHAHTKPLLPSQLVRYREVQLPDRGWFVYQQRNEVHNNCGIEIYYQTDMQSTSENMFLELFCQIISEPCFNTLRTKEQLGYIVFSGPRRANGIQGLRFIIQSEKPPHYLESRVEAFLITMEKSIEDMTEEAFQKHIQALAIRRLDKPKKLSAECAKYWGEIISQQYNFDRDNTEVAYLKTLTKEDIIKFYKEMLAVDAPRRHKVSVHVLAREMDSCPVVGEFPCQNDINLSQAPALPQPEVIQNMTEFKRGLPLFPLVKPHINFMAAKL

[6] = target: T2, Protein RecA (Mycobacterium tuberculosis, UniProt P9WHJ3); assay: Fluorescence Cell-Free Homogeneous Dose Retest to Identify Inhibitors of RecA-Intein Splicing Activity. [Related pubchem assays (depositor defined):AID2097, AID2223, AID489010, AID492950]; format: functional
T2 sequence (P9WHJ3 whole entry): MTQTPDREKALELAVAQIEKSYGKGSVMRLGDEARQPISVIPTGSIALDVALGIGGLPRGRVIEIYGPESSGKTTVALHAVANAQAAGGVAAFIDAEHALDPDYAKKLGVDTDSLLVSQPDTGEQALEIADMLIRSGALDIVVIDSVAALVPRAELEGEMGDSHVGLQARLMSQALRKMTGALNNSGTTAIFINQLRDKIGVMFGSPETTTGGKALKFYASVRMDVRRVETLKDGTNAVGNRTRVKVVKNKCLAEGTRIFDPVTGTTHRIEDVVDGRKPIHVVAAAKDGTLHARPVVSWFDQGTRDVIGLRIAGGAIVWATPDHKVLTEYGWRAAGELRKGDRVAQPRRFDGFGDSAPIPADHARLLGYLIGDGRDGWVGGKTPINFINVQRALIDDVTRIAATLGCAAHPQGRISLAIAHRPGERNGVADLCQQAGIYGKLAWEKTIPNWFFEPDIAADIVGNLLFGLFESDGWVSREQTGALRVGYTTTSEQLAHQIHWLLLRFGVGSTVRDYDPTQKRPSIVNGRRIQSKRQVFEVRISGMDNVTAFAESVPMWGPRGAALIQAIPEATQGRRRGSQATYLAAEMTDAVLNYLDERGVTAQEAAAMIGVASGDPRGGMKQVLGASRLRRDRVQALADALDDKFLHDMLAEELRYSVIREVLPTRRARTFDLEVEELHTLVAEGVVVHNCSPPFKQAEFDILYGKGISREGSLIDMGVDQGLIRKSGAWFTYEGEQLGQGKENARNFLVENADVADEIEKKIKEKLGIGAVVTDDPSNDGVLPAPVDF

[7] = target: Dual specificity tyrosine-phosphorylation-regulated kinase 1A (Rattus norvegicus, UniProt Q63470); format: biochemical, Homo sapiens
[8] = target: Serine/threonine-protein phosphatase (Homo sapiens, UniProt Q9BPW0); assay: Counterscreen for inhibitors of PP1: fluorescence-based biochemical high throughput dose response assay to identify inhibitors of Protein Phosphatase 5 (PP5). [Related pubchem assays: 2034 (Summary (PP5 inhibitors)), 1987 (PP5 inhibitors in singlate), 2235 (PP1 inhibitors in singlate)]
Chain of Serine/threonine-protein phosphatase (Q9BPW0 whole entry): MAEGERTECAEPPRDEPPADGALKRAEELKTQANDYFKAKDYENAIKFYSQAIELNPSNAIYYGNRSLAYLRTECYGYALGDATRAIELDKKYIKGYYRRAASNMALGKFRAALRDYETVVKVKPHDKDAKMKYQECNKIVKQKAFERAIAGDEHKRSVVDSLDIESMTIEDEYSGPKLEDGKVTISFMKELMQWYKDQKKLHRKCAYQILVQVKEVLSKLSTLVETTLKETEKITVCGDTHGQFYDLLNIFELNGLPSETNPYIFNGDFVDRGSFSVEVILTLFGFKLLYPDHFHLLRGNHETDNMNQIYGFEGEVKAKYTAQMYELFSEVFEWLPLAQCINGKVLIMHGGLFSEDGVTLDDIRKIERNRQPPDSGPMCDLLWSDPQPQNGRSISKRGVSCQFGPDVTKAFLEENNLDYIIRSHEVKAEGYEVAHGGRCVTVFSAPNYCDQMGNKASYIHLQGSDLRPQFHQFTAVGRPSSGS

[9] = target: Serine/threonine-protein phosphatase PP1-alpha catalytic subunit (Homo sapiens, UniProt P62136); assay: PP1 phosphatase inhibitors, dose response, biochemical, fluorescence (AID 2403);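 note: phosphatase turnover of OMFP into fluorescent 3-O-methylfluorescein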
[10] = target: Genome polyprotein (dengue virus type 2, UniProt P29990); assay: Dengue-2 NS5 methyltransferase inhibitors, primary screen, biochemical, confirmation dose response (AID 588689); format: functional
Chain of Genome polyprotein (P29990 2492-3391 limits assumed): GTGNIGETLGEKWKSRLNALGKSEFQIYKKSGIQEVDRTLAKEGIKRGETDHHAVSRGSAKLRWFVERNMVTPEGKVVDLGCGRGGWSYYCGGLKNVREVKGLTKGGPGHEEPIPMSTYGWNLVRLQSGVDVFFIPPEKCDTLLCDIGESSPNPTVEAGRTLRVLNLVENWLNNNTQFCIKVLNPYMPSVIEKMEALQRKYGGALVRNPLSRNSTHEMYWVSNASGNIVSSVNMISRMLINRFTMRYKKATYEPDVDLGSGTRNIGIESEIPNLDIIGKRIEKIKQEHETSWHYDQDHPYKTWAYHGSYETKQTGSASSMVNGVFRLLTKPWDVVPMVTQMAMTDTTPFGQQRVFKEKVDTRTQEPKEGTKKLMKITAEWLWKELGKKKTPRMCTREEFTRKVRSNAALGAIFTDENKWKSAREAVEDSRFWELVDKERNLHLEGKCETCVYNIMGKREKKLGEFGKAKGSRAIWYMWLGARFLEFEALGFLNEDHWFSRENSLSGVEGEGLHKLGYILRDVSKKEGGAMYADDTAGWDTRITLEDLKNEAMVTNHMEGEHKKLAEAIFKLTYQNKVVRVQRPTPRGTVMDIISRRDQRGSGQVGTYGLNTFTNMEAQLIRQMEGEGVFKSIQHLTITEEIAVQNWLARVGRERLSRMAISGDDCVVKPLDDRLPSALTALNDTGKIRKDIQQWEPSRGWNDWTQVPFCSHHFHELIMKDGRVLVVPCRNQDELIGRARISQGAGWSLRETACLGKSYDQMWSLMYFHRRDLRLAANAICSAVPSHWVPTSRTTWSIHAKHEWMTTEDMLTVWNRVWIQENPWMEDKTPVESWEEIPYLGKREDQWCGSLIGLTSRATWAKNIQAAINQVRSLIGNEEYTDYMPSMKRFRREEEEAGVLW

[11] = target: T3, Replicative DNA helicase DnaB (Mycobacterium tuberculosis, UniProt P9WMR3); assay: DnaB intein splicing inhibitors, dose response, biochemical, cell-free fluorescence (AID 449749); format: functional
T3 sequence (P9WMR3 whole entry): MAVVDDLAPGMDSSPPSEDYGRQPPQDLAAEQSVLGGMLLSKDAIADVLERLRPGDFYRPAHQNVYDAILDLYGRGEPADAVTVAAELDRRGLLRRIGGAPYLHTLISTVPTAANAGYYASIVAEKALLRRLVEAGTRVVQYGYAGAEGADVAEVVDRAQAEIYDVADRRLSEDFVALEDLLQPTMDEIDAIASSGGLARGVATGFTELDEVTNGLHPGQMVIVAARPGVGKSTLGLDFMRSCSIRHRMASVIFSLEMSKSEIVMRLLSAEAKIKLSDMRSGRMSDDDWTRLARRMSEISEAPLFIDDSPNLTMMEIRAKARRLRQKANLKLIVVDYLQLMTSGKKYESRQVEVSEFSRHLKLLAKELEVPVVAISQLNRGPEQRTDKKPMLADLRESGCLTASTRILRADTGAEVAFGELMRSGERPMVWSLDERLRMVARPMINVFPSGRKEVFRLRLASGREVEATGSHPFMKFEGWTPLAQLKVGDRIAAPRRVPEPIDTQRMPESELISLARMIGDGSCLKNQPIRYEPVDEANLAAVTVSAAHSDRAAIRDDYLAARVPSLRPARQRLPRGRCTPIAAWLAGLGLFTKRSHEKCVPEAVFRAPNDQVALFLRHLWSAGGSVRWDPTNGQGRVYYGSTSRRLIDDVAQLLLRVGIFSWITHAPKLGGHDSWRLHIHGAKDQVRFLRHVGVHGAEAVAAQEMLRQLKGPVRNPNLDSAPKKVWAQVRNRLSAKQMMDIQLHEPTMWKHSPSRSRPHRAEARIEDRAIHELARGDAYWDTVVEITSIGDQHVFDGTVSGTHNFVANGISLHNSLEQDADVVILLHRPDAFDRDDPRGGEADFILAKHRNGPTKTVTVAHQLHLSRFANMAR

[12] = inhibitors of Bluetongue virus cytopathic effect, confirmation, arbovirus, BSR cells (AID 1250); format: functional;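 note: protection from viral cytopathic effect measured as cell viability by ATP luminescence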
[13] = target: Heat shock protein HSP 90-alpha (Homo sapiens, UniProt P07900); format: functional, organism-based
[14] = target: Transitional endoplasmic reticulum ATPase (Homo sapiens, UniProt P55072, C522A); assay: C522A mutant p97 ATPase inhibitors, dose response, counter-screen for p97 inhibitor project, biochemical, luminescence (AID 1544)
Chain of Transitional endoplasmic reticulum ATPase (Homo sapiens, UniProt P55072, C522A) (P55072 2-806 C522A limits assumed): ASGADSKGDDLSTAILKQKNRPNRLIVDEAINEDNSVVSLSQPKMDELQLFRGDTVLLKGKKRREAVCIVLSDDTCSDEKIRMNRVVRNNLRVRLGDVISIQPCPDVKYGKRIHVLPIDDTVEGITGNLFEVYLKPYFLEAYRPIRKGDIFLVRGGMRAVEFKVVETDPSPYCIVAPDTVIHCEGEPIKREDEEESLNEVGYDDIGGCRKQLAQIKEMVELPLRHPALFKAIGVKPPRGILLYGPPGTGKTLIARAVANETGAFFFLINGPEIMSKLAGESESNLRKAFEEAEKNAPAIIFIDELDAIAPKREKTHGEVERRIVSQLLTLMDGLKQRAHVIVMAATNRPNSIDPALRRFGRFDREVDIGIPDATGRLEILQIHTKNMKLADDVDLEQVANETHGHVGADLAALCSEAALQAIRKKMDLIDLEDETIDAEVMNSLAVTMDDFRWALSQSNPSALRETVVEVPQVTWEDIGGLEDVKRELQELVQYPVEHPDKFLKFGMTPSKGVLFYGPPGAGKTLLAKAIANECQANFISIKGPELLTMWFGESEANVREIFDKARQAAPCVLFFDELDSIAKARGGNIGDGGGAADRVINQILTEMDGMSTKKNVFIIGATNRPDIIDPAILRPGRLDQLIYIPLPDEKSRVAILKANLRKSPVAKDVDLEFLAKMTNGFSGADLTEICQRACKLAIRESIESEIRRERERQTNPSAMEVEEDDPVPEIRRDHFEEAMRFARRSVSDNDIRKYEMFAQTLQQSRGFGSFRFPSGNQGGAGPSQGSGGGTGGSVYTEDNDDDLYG

[15] = target: Transitional endoplasmic reticulum ATPase (Homo sapiens, UniProt P55072); assay: p97 ATPase inhibitors, dose response, biochemical (AID 1534)
Chain of Transitional endoplasmic reticulum ATPase (Homo sapiens, UniProt P55072) (P55072 whole entry): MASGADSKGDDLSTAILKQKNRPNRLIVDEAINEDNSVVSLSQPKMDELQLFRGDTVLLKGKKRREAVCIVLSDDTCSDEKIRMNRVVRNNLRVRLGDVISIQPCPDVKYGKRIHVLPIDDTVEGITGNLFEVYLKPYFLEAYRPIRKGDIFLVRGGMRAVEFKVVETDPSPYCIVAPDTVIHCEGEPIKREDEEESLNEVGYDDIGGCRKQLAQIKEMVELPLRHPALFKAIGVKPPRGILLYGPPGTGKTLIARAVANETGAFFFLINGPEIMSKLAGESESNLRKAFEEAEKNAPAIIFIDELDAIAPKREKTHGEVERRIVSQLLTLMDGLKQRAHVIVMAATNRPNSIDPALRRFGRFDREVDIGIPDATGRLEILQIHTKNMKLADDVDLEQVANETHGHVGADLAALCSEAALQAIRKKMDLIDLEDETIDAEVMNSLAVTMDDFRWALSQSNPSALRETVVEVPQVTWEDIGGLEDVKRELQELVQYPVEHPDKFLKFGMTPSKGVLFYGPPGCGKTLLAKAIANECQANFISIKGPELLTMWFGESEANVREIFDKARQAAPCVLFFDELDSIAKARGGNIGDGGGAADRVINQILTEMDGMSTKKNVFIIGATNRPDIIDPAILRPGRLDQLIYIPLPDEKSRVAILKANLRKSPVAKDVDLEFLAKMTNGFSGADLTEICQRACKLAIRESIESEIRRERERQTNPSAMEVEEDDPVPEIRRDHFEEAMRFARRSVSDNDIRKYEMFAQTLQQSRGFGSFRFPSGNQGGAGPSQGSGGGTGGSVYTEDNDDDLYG

[16] = target: T4, Heat shock 70 kDa protein 1A (Homo sapiens, UniProt P0DMV8); assay: Hsp70 inhibitors, probe displacement, primary screen, biochemical, fluorescence polarization (AID 583)
T4 sequence (P0DMV8 whole entry): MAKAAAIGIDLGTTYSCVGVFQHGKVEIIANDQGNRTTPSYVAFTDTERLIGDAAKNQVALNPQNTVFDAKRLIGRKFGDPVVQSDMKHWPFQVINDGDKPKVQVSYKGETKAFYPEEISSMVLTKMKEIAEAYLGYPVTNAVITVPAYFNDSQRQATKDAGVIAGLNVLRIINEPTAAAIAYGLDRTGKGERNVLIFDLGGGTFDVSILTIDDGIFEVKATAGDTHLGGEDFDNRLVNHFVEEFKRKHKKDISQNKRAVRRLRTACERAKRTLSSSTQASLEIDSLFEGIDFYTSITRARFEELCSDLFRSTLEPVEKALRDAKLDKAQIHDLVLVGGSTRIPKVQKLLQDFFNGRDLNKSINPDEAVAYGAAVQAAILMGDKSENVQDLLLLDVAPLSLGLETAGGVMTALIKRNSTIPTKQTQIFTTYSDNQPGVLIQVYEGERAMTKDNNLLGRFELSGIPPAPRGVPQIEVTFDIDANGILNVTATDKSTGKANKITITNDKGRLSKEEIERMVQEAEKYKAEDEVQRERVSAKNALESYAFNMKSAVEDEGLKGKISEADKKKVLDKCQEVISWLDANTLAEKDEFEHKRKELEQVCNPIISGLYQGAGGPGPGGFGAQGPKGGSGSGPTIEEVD

[17] = target: T4, Heat shock 70 kDa protein 1A; assay: Hsp70 inhibitors, biochemical, TR-FRET (AID 786)
[18] = target: Heat shock cognate 71 kDa protein (Homo sapiens, UniProt P11142); assay: In Vitro Hsc70 Dose Response Fluorescence Polarization Assay. [Related pubchem assays: 1072 ]
[19] = target: T4, Heat shock 70 kDa protein 1A; assay: Hsp70 inhibitors, SAR follow-up, biochemical, fluorescence polarization (AID 1072)
[20] = target: T5, Tyrosine-protein phosphatase non-receptor type 7 (Homo sapiens, UniProt P35236); format: functional
T5 sequence (P35236 whole entry): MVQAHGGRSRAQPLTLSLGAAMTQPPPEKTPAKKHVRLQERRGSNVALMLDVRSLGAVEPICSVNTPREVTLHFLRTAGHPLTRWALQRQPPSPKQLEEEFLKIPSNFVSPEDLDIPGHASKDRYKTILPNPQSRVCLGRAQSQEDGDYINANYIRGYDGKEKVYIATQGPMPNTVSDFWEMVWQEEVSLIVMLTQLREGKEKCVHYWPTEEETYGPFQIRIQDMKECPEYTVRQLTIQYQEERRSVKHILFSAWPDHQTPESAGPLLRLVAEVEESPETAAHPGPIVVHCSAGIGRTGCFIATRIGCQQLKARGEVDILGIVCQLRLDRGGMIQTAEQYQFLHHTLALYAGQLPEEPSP

[21] = target: T6, Dual specificity protein phosphatase 6 (Rattus norvegicus, UniProt Q64346)
T6 sequence (Q64346 whole entry): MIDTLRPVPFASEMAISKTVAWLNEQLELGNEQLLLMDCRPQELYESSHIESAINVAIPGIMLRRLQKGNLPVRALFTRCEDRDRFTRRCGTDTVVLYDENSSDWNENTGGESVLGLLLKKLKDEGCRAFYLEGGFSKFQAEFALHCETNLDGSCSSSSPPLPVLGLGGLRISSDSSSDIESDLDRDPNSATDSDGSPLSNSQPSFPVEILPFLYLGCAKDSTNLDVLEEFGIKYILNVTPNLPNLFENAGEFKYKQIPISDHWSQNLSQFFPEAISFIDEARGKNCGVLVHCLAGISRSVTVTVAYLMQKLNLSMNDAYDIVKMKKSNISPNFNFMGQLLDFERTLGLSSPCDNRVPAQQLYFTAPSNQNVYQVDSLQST

[22] = target: T6, Dual specificity protein phosphatase 6; format: functional
[23] = target: Glyceraldehyde-3-phosphate dehydrogenase (Homo sapiens, UniProt P04406)
Chain of Glyceraldehyde-3-phosphate dehydrogenase (P04406 whole entry): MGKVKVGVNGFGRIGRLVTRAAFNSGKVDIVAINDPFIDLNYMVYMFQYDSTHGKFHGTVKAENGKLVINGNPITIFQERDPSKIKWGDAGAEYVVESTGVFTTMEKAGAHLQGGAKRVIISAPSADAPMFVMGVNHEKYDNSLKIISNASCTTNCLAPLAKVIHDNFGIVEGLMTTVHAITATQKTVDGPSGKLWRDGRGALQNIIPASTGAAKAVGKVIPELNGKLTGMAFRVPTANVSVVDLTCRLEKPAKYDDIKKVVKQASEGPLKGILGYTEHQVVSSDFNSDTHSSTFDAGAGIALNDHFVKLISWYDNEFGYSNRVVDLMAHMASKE

[24] = target: T7, Alkaline phosphatase, tissue-nonspecific isozyme (Homo sapiens, UniProt P05186); assay: human TNAP enzyme inhibitors, SAR follow-up, biochemical, luminescent, dose response (AID 1056)
T7 sequence (P05186 whole entry): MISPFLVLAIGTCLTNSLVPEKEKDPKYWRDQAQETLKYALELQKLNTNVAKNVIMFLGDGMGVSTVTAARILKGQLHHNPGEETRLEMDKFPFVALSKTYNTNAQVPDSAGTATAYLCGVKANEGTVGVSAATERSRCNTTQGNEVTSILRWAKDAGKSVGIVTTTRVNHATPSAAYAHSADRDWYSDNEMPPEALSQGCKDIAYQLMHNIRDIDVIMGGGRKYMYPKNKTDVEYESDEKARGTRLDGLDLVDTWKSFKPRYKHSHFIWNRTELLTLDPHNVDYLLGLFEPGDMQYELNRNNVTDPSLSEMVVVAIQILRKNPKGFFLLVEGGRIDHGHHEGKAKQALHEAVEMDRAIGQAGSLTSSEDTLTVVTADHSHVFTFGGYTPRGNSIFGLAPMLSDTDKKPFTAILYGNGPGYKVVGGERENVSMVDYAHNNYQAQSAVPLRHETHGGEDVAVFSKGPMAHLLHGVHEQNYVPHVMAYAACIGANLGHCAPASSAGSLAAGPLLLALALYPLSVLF

Chain of Neuropeptide Y receptor type 1 (P25929 whole entry): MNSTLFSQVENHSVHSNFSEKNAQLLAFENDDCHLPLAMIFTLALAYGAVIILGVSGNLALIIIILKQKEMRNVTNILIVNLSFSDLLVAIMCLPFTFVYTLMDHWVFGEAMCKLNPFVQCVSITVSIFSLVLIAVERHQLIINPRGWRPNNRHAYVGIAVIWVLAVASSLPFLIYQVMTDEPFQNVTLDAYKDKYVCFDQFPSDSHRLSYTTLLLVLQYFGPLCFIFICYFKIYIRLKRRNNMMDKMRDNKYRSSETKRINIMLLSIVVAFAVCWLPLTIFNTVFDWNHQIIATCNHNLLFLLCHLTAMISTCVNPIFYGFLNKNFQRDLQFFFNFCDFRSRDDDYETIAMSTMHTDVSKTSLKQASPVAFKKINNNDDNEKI

## Cc1sc2nc(SCc3ccc(C(=O)O)cc3)n(Cc3ccco3)c(=O)c2c1C
[1]
  EC50: > 35.4 µM (not active)
[2]
  EC50: > 35.4 µM (not active)
[3]
  EC50: > 35.4 µM (not active)

## CCCN1C(=O)/C(=C/c2ccc(N3CCOCC3)cc2)NC1=S
[4]
  IC50: 19 µM (not active)
[5]
  IC50: 33.1 µM (not active)

## O=C(O)CC1OCC=C2CN3CCC45C6=CC(=O)C(O)=C([N+](=O)[O-])C6=NC4C1C2CC35 (centres undefined)
[6]
  EC50: 7.02 µM (active)
[7]
  AC50: 3.17 µM (active)
[8]
  IC50: > 0.276 µM (active)
[9]
  IC50: 1.97 µM (active)
[10]
  IC50: > 100 µM (active)
[11]
  AC50: 6.67 µM (active)

## O=C(O)c1cccc(NN=C2c3ccccc3-c3ccccc32)c1
[12]
  IC50: 23.9 µM (active)
[13]
  AC50: 8.32 µM (active)
[14]
  IC50: > 50 µM (not active)
[15]
  IC50: 50 µM (not active)

## Cc1cc(NC(=O)CSc2ncnc3ccccc23)no1
[16]
  IC50: > 100 µM (not active)
[17]
  IC50: > 100 µM (not active)

## O=C(O)c1ccc(N2C(=O)c3ccccc3C2=O)cc1
[18]
  IC50: > 100 µM (not active)
[19]
  IC50: > 100 µM (not active)
[20]
  IC50: > 100 µM (not active)
[21]
  IC50: > 100 µM (inactive)
[22]
  IC50: > 100 µM (inactive)
[23]
  IC50: > 100 µM (not active)
[24]
  IC50: > 100 µM (inactive)
